Experimental data taken from publication PMC10893631, “Receptor-based pharmacophore modeling, molecular docking, synthesis and biological evaluation of novel VEGFR-2, FGFR-1, and BRAF multi-kinase inhibitors” (BMC Chemistry, 2024).

How the values were obtained:
Test in all cases: NCI SRB growth inhibition (single dose 10 µM / five-dose)
Format in all cases: cell-based, human
786–0 = conditions: Homo sapiens; for inhibition at 10 µM: 786–0 (Renal cancer), read-out: GI%; for GI50: 786–0, Renal cancer, five-dose
Procedure, shortened: (§1)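 Seeding varied with cell doubling time (5000–40,000 cells/well). Dilutions were 10-fold or ½ log, five levels in total. Sulforhodamine B staining (0.4% w/v, 10 min, room temperature) of TCA-fixed cells measured growth.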

HCT-116 = conditions: Homo sapiens, HCT-116; for inhibition at 10 µM: read-out: GI%
Procedure, shortened: as §1

IGROV1 = conditions: Homo sapiens, IGROV-1; for inhibition at 10 µM: IGROV1 (Ovarian cancer), read-out: GI%; for GI50: IGROV1, Ovarian cancer, five-dose
Procedure, shortened: as §1

K-562 = conditions: Homo sapiens, K562; for inhibition at 10 µM: K-562 (Leukemia), read-out: GI%; for GI50: K-562, Leukemia, five-dose
Procedure, shortened: as §1

M14 = conditions: Homo sapiens; for inhibition at 10 µM: M14 (Melanoma), read-out: GI%; for GI50: M14, Melanoma, five-dose
Procedure, shortened: as §1

MALME-3 M = conditions: Homo sapiens; for inhibition at 10 µM: MALME-3 M (Melanoma), read-out: GI%; for GI50: MALME-3 M, Melanoma, five-dose
Procedure, shortened: as §1

MDA-MB-435 = conditions: Homo sapiens; for inhibition at 10 µM: MDA-MB-435 (Melanoma), read-out: GI%; for GI50: MDA-MB-435, Melanoma, five-dose
Procedure, shortened: as §1

NCI-H226 = conditions: Homo sapiens; for inhibition at 10 µM: NCI-H226 (Non-small cell lung cancer), read-out: GI%; for GI50: NCI-H226, Non-small cell lung cancer, five-dose
Procedure, shortened: as §1

NCI/ADR-RES = conditions: Homo sapiens; for inhibition at 10 µM: NCI/ADR-RES (Ovarian cancer), read-out: GI%; for GI50: NCI/ADR-RES, Ovarian cancer, five-dose
Procedure, shortened: as §1

OVCAR-3 = conditions: Homo sapiens; for inhibition at 10 µM: OVCAR-3 (Ovarian cancer), read-out: GI%; for GI50: OVCAR-3, Ovarian cancer, five-dose
Procedure, shortened: as §1

OVCAR-4 = conditions: Homo sapiens; for inhibition at 10 µM: OVCAR-4 (Ovarian cancer), read-out: GI%; for GI50: OVCAR-4, Ovarian cancer, five-dose
Procedure, shortened: as §1

RPMI-8226 = conditions: Homo sapiens; for inhibition at 10 µM: RPMI-8226 (Leukemia), read-out: GI%; for GI50: RPMI-8226, Leukemia, five-dose
Procedure, shortened: as §1

RXF 393 = conditions: Homo sapiens; for inhibition at 10 µM: RXF 393 (Renal cancer), read-out: GI%; for GI50: RXF 393, Renal cancer, five-dose
Procedure, shortened: as §1

SF-295 = conditions: Homo sapiens; for inhibition at 10 µM: SF-295 (CNS cancer), read-out: GI%; for GI50: SF-295, CNS cancer, five-dose
Procedure, shortened: as §1

SF-539 = conditions: Homo sapiens; for inhibition at 10 µM: SF-539 (CNS cancer), read-out: GI%; for GI50: SF-539, CNS cancer, five-dose
Procedure, shortened: as §1

SK-MEL-28 = conditions: Homo sapiens; for inhibition at 10 µM: SK-MEL-28 (Melanoma), read-out: GI%; for GI50: SK-MEL-28, Melanoma, five-dose
Procedure, shortened: as §1

SK-MEL-5 = conditions: Homo sapiens; for inhibition at 10 µM: SK-MEL-5 (Melanoma), read-out: GI%; for GI50: SK-MEL-5, Melanoma, five-dose
Procedure, shortened: as §1

SK-OV-3 = conditions: Homo sapiens; for GI50: SK-OV-3, Ovarian cancer, five-dose
Procedure, shortened: as §1

SW-620 = conditions: Homo sapiens; for inhibition at 10 µM: SW-620 (Colon cancer), read-out: GI%; for GI50: SW-620, Colon cancer, five-dose
Procedure, shortened: as §1

T-47D = conditions: Homo sapiens, T47D; for GI50: T-47D, Breast cancer, five-dose
Procedure, shortened: as §1

TK-10 = conditions: Homo sapiens; for inhibition at 10 µM: TK-10 (Renal cancer), read-out: GI%; for GI50: TK-10, Renal cancer, five-dose
Procedure, shortened: as §1

UACC-62 = conditions: Homo sapiens; for inhibition at 10 µM: UACC-62 (Melanoma), read-out: GI%; for GI50: UACC-62, Melanoma, five-dose
Procedure, shortened: as §1

UO-31 = conditions: Homo sapiens; for inhibition at 10 µM: UO-31 (Renal cancer), read-out: GI%; for GI50: UO-31, Renal cancer, five-dose
Procedure, shortened: as §1

## COc1ccc(-c2nc3cc(C(=O)NN=Cc4cccc(OC)c4)ccc3[nH]2)cc1 [8j, N'-(3-Methoxybenzylidene)-2-(4-methoxyphenyl)-1H-benzo[d]imidazole-5-carbohydrazide]
786–0
  inhibition at 10 µM: > 100%
  GI50: 3840 nM
HCT-116
  GI50: 2990 nM
  inhibition at 10 µM: > 100%
IGROV1
  inhibition at 10 µM: > 100%
  GI50: 3490 nM
K-562
  inhibition at 10 µM: 88.1%
  GI50: 6920 nM
M14
  inhibition at 10 µM: 70.4%
  GI50: 3420 nM
MALME-3 M
  inhibition at 10 µM: > 100%
  GI50: 2450 nM
MDA-MB-435
  inhibition at 10 µM: 76.5%
  GI50: 6250 nM
NCI-H226
  inhibition at 10 µM: 98.3%
  GI50: 2130 nM
NCI/ADR-RES
  inhibition at 10 µM: 32%
  GI50: 6350 nM
OVCAR-3
  inhibition at 10 µM: > 100%
  GI50: 2050 nM
OVCAR-4
  inhibition at 10 µM: > 100%
  GI50: 2010 nM
RPMI-8226
  inhibition at 10 µM: > 100%
  GI50: 4140 nM
RXF 393
  inhibition at 10 µM: > 100%
  GI50: 2260 nM
SF-295
  inhibition at 10 µM: 167%
  GI50: 2930 nM
SF-539
  inhibition at 10 µM: 34.1%
  GI50: 11500 nM
SK-MEL-28
  inhibition at 10 µM: 64.2%
  GI50: 3930 nM
SK-MEL-5
  inhibition at 10 µM: > 100%
  GI50: 3450 nM
SK-OV-3; SK-OV-3 (Ovarian cancer), 10 µM, read-out: GI%
  inhibition at 10 µM: 68.3%
SK-OV-3
  GI50: 5390 nM
SW-620
  inhibition at 10 µM: > 100%
  GI50: 3100 nM
T-47D; T-47D (Breast cancer), 10 µM, read-out: GI%
  inhibition at 10 µM: > 100%
T-47D
  GI50: 2620 nM
TK-10
  inhibition at 10 µM: > 100%
  GI50: 12600 nM
UACC-62
  inhibition at 10 µM: 58.9%
  GI50: 6500 nM
UO-31
  inhibition at 10 µM: 98.9%
  GI50: 1780 nM

## O=C(NN=Cc1ccccc1O)c1ccc2[nH]c(-c3ccc(Cl)cc3)nc2c1 [8o, 2-(4-Chlorophenyl)-N'-(2-hydroxybenzylidene)-1H-benzo[d]imidazole-5-carbohydrazide]
786–0
  inhibition at 10 µM: > 100%
  GI50: 830 nM
HCT-116
  GI50: 1080 nM
  inhibition at 10 µM: 98.4%
IGROV1
  inhibition at 10 µM: 84.3%
  GI50: 950 nM
K-562
  inhibition at 10 µM: 85.5%
  GI50: 150 nM
M14
  inhibition at 10 µM: 90.9%
  GI50: 1810 nM
MALME-3 M
  inhibition at 10 µM: > 100%
  GI50: 1030 nM
MDA-MB-435
  inhibition at 10 µM: > 100%
  GI50: 530 nM
NCI-H226
  inhibition at 10 µM: 88.6%
  GI50: 4330 nM
NCI/ADR-RES
  inhibition at 10 µM: 56.4%
  GI50: 1150 nM
OVCAR-3
  inhibition at 10 µM: > 100%
  GI50: 190 nM
OVCAR-4
  inhibition at 10 µM: > 100%
  GI50: 1250 nM
RPMI-8226
  inhibition at 10 µM: 88.2%
  GI50: > 38800 nM
RXF 393
  inhibition at 10 µM: > 100%
  GI50: 790 nM
SF-295
  inhibition at 10 µM: > 100%
  GI50: 1600 nM
SF-539
  inhibition at 10 µM: > 100%
  GI50: 370 nM
SK-MEL-28
  inhibition at 10 µM: 78.2%
  GI50: 1850 nM
SK-MEL-5
  inhibition at 10 µM: > 100%
  GI50: 510 nM
SK-OV-3
  GI50: 4530 nM
SW-620
  inhibition at 10 µM: > 100%
  GI50: 330 nM
T-47D
  GI50: 1480 nM
TK-10
  inhibition at 10 µM: 95%
  GI50: 5080 nM
UACC-62
  inhibition at 10 µM: 95.3%
  GI50: 1690 nM
UO-31
  inhibition at 10 µM: > 100%
  GI50: 310 nM
